Assay results as given in paper PMC10497752, “Heparins are potent inhibitors of ectonucleotide pyrophosphatase/phospho-diesterase-1 (NPP1) – a promising target for the immunotherapy of cancer” (Frontiers in Immunology, 2023).

System: ectonucleotidases expressed in U87 cell membrane preparations
Experiment: Enzymatic assay on U87 cell membrane preparations (adenosine formation, CE)
Assay type: biochemical, human
Details: 10 µg, 30 min 37°C, substrate 6 to 500 µM
Procedure: U87 glioblastoma cells were grown in cell culture dishes until reaching a fully covered confluent cell layer. Cells were cultivated at 37°C and 5% CO2 in DMEM with additions of 10% FCS, 1% penicillin/streptomycin (P/S) mixture and 1% L-glutamine. When confluent, the cell culture media was carefully removed and cells were frozen at -20°C overnight. The cells were then scraped off with a cell scraper using 2-3 mL of buffer (5 mM Tris, 2 mM EDTA, pH 7.4), homogenized and centrifuged for 10 min at 1000 g. The supernatant was collected and centrifuged for 60 min at 48000 g and 4°C. The pellet was then resuspended twice with Tris buffer, pH 7.4, followed by vortexing and centrifugation. The whole procedure was performed on ice. Finally, the pellet was resuspended and homogenized. A protein concentration of 1.5 mg/mL was determined with the Bradford method ([35]), and the protein was kept at -20°C until used. The enzymatic assay was performed by incubating the membrane preparation and the substrate at 37°C and 500 rpm for 30 min, followed by heat inactivation at 95°C for 5 min. For the determination of kinetic parameters, several substrate concentrations (from 6 to 500 µM of ATP or AMP) were utilized and incubated with 10 µg of membrane preparation for 30 min at 37°C, followed by heat inactivation. Capillary electrophoresis (CE) was used for analysis and quantification of the enzymatic product according to published procedures ([11], [36]). For the determination of the enzymatic activity 400 µM of ATP were employed, and three different amounts of membrane preparation (6, 10 and 30 µg of protein) were utilized. A positive control using the known NPP1 inhibitor PSB-POM-141 (20 µM) was performed ([19]). Data were obtained from three independent experiments each in duplicate measurements. […] Controls were run in parallel.

SMILES | Km [µM]
Nc1ncnc2c1ncn2[C@@H]1O[C@H](COP(=O)(O)O)[C@@H](O)[C@H]1O [AMP] | 38
Nc1ncnc2c1ncn2[C@@H]1O[C@H](COP(=O)(O)OP(=O)(O)OP(=O)(O)O)[C@@H](O)[C@H]1O [ATP] | 83
